Data: PubChem BioAssay AID248 (DTP/NCI, 2004)
Where “and” joins values, the source holds several entries; their conditions need not be identical. Equal entries are not always repeated. Inconclusive results and toxic doses are left out. Rule as the data show it: active = T/C of 150% or more; inactive = T/C below 125%.

Test system: L1210 leukemia ip in BDF1 mice, survival T/C
Assay: NCI In Vivo Anticancer Drug Screen. Data for tumor model L1210 Leukemia (intraperitoneal) in B6D2F1 (BDF1) mice
Conditions: endpoint: mean survival time, higher = longer survival
Summary of the method: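 Tumor cells were implanted, animals were treated, and survival was followed. The result divides the treated measurement by the vehicle-control measurement.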

[1] = dose: 100.0 mg/kg/injection, schedule: Q01DX009 (ip), vehicle: Klucel (hydroxypropylcellulose) (HPC)
[2] = dose: 200.0 mg/kg/injection, schedule: Q01DX009 (ip), vehicle: Klucel (hydroxypropylcellulose) (HPC)
[3] = dose: 400.0 mg/kg/injection, schedule: Q01DX009 (ip), vehicle: Klucel (hydroxypropylcellulose) (HPC)
[4] = dose: 100.0 mg/kg/injection, schedule: Q01DX009 (ip), vehicle: saline with Tween-80
[5] = dose: 100.0 mg/kg/injection, schedule: Q04DX002 (ip), vehicle: saline with Tween-80
[6] = dose: 100.0 mg/kg/injection, schedule: Q04DX003 (ip), vehicle: saline with Tween-80
[7] = dose: 200.0 mg/kg/injection, schedule: Q01DX009 (ip), vehicle: saline with Tween-80
[8] = dose: 200.0 mg/kg/injection, schedule: Q04DX002 (ip), vehicle: saline with Tween-80
[9] = dose: 200.0 mg/kg/injection, schedule: Q04DX003 (ip), vehicle: saline with Tween-80
[10] = dose: 400.0 mg/kg/injection, schedule: Q01DX009 (ip), vehicle: saline with Tween-80
[11] = dose: 400.0 mg/kg/injection, schedule: Q04DX002 (ip), vehicle: saline with Tween-80
[12] = dose: 400.0 mg/kg/injection, schedule: Q04DX003 (ip), vehicle: saline with Tween-80
[13] = dose: 100.0 mg/kg/injection, schedule: Q04DX003 (ip), vehicle: saline
[14] = dose: 200.0 mg/kg/injection, schedule: Q04DX003 (ip), vehicle: saline
[15] = dose: 400.0 mg/kg/injection, schedule: Q04DX003 (ip), vehicle: saline
[16] = dose: 12.5 mg/kg/injection, schedule: Q04DX003 (ip), vehicle: saline with Tween-80
[17] = dose: 25.0 mg/kg/injection, schedule: Q01DX009 (ip), vehicle: saline
[18] = dose: 25.0 mg/kg/injection, schedule: Q04DX003 (ip), vehicle: saline with Tween-80
[19] = dose: 50.0 mg/kg/injection, schedule: Q01DX009 (ip), vehicle: saline
[20] = dose: 50.0 mg/kg/injection, schedule: Q04DX003 (ip), vehicle: saline with Tween-80
[21] = dose: 100.0 mg/kg/injection, schedule: Q01DX001 (ip), vehicle: saline

Measured: T/C

CC1CCCCN1C(=O)Nc1cccc(F)c1 (stereo not given)
inactive: [1] 104 % of control | [2] 102 % of control | [3] 111 % of control

N#Cc1ncn(C2OC(CO)C(O)C2O)c1N (stereo not given)
inactive: dose: 100.0 mg/kg/injection, schedule: Q01DX005 (ip), vehicle: saline 103 % of control | dose: 200.0 mg/kg/injection, schedule: Q01DX005 (ip), vehicle: saline 96 % of control

Cc1ccc(Cl)cc1NC(=O)Nc1ccccc1O
inactive: dose: 100.0 mg/kg/injection, schedule: Q01DX001 (ip), vehicle: saline with Tween-80 95 % of control | [4] 94 % of control and 97 % of control | [5] 94 % of control and 95 % of control | [6] 106 % of control | dose: 200.0 mg/kg/injection, schedule: Q01DX001 (ip), vehicle: saline with Tween-80 95 % of control | [7] 94 % of control and 92 % of control | [8] 94 % of control and 106 % of control | [9] 103 % of control | dose: 400.0 mg/kg/injection, schedule: Q01DX001 (ip), vehicle: saline with Tween-80 93 % of control | [10] 109 % of control and 115 % of control | [11] 93 % of control and 91 % of control | [12] 94 % of control

CC1(CO)CCCC2(C)c3cc(O)ccc3CCC12 (stereo not given)
inactive: dose: 100.0 mg/kg/injection, schedule: Q01DX009 (ip), vehicle: acetone 90 % of control | [13] 97 % of control | [14] 97 % of control | [15] 97 % of control

Nc1nc(N)c2c(n1)CN(Cc1ccccc1)C2
inactive: dose: 25.0 mg/kg/injection, schedule: Q01DX001 (ip), vehicle: carboxymethylcellulose (CMC) 103 % of control | dose: 50.0 mg/kg/injection, schedule: Q01DX001 (ip), vehicle: carboxymethylcellulose (CMC) 103 % of control

O=[N+]([O-])c1ccc(F)c(Cl)c1F
inactive: dose: 10.0 mg/kg/injection, schedule: Q04DX003 (ip), vehicle: Klucel (hydroxypropylcellulose) (HPC) 103 % of control | dose: 20.0 mg/kg/injection, schedule: Q04DX003 (ip), vehicle: Klucel (hydroxypropylcellulose) (HPC) 106 % of control | dose: 40.0 mg/kg/injection, schedule: Q04DX003 (ip), vehicle: Klucel (hydroxypropylcellulose) (HPC) 99 % of control

Nc1c(Br)cc(Br)c2c1-c1ccccc1C2=O
inactive: dose: 100.0 mg/kg/injection, schedule: Q01DX001 (ip), vehicle: carboxymethylcellulose (CMC) 98 % of control | dose: 200.0 mg/kg/injection, schedule: Q01DX001 (ip), vehicle: carboxymethylcellulose (CMC) 104 % of control | dose: 400.0 mg/kg/injection, schedule: Q01DX001 (ip), vehicle: carboxymethylcellulose (CMC) 102 % of control

CCCCCCCCC(CO)(CCCCCCC)C(=O)O (stereo not given)
inactive: [5] 88 % of control | [8] 88 % of control

CCC1=[N+](C)C(C)(C)CC(C)O1 (stereo not given)
inactive: dose: 6.25 mg/kg/injection, schedule: Q01DX009 (ip), vehicle: saline 102 % of control | dose: 6.25 mg/kg/injection, schedule: Q04DX003 (ip), vehicle: saline with Tween-80 98 % of control | dose: 12.5 mg/kg/injection, schedule: Q01DX009 (ip), vehicle: saline 102 % of control | [16] 94 % of control | [17] 107 % of control | [18] 94 % of control | [19] 102 % of control | [20] 94 % of control and 95 % of control

CCCCCCCCC(C(O)c1ccccc1)C(O)(C(F)(F)F)C(F)(F)F (stereo not given)
inactive: [4] 95 % of control | [7] 105 % of control | [10] 97 % of control

COc1ccc(N=NNc2ccc(OC)cc2)cc1
inactive: dose: 6.25 mg/kg/injection, schedule: Q01DX009 (ip), vehicle: saline with Tween-80 101 % of control | dose: 12.5 mg/kg/injection, schedule: Q01DX009 (ip), vehicle: saline with Tween-80 102 % of control | [16] 97 % of control | dose: 25.0 mg/kg/injection, schedule: Q01DX009 (ip), vehicle: saline with Tween-80 98 % of control and 90 % of control | [18] 95 % of control | [20] 97 % of control | [6] 98 % of control

c1cc[c]([Ge]([c]2ccccc2)([c]2ccccc2)[c]2cc[c]([Ge]([c]3ccccc3)([c]3ccccc3)[c]3ccccc3)cc2)cc1
inactive: [5] 97 % of control | [8] 87 % of control | [11] 91 % of control

O=C(O)C1=CCCc2ccc3ccccc3c21
inactive: dose: 75.0 mg/kg/injection, schedule: Q04DX003 (ip), vehicle: saline 100 % of control | [1] 96 % of control | dose: 150.0 mg/kg/injection, schedule: Q04DX003 (ip), vehicle: saline 100 % of control | [2] 102 % of control | dose: 300.0 mg/kg/injection, schedule: Q04DX003 (ip), vehicle: saline 97 % of control

Cn1c(=O)c2[nH]c(C3CC=CCC3)nc2n(C)c1=O (stereo not given)
inactive: dose: 50.0 mg/kg/injection, schedule: Q01DX001 (ip), vehicle: other 97 % of control | dose: 100.0 mg/kg/injection, schedule: Q01DX001 (ip), vehicle: other 95 % of control | dose: 400.0 mg/kg/injection, schedule: Q01DX001 (ip), vehicle: other 94 % of control

N#C/C(=C\c1cccs1)c1ccc([N+](=O)[O-])cc1
inactive: [1] 96 % of control | [2] 86 % of control | [3] 91 % of control

CCCCOCC1CO1 (stereo not given)
inactive: [6] 92 % of control | [9] 95 % of control | [12] 98 % of control

CCCCN1CC1(C)C (stereo not given)
inactive: [17] 105 % of control | [19] 105 % of control | [21] 98 % of control | dose: 100.0 mg/kg/injection, schedule: Q01DX009 (ip), vehicle: saline 106 % of control

NC1C(O)CCCC1O (stereo not given)
inactive: [21] 107 % of control | dose: 200.0 mg/kg/injection, schedule: Q01DX001 (ip), vehicle: saline 102 % of control | dose: 400.0 mg/kg/injection, schedule: Q01DX001 (ip), vehicle: saline 102 % of control

O=C(Cn1ccc(=O)[nH]c1=O)N1CCOCC1
inactive: dose: 100.0 mg/kg/injection, schedule: Q01DX009 (ip), vehicle: water 91 % of control | dose: 100.0 mg/kg/injection, schedule: Q04DX003 (ip), vehicle: water 100 % of control | dose: 200.0 mg/kg/injection, schedule: Q01DX009 (ip), vehicle: water 90 % of control | dose: 200.0 mg/kg/injection, schedule: Q04DX003 (ip), vehicle: water 92 % of control | dose: 400.0 mg/kg/injection, schedule: Q01DX009 (ip), vehicle: water 104 % of control | dose: 400.0 mg/kg/injection, schedule: Q04DX003 (ip), vehicle: water 94 % of control

CCC(=O)OCc1ccc(Cl)cc1
inactive: [1] 97 % of control | dose: 100.0 mg/kg/injection, schedule: Q04DX003 (ip), vehicle: Klucel (hydroxypropylcellulose) (HPC) 101 % of control | [2] 95 % of control | dose: 200.0 mg/kg/injection, schedule: Q04DX003 (ip), vehicle: Klucel (hydroxypropylcellulose) (HPC) 96 % of control | [3] 94 % of control | dose: 400.0 mg/kg/injection, schedule: Q04DX003 (ip), vehicle: Klucel (hydroxypropylcellulose) (HPC) 95 % of control

O=C(/C=C/C(=O)NCc1ccccc1)NCc1ccccc1
inactive: [13] 100 % of control | [14] 103 % of control | [15] 100 % of control

C1=C(c2ccccc2)CCCCC1
inactive: [4] 87 % of control | [6] 95 % of control | [7] 96 % of control | [9] 100 % of control | [10] 99 % of control | [12] 98 % of control

O=C(/C=C\c1cccc([N+](=O)[O-])c1)c1ccc(F)cc1
inactive: dose: 100.0 mg/kg/injection, schedule: Q04DX002 (ip), vehicle: Klucel (hydroxypropylcellulose) (HPC) 100 % of control | dose: 200.0 mg/kg/injection, schedule: Q04DX002 (ip), vehicle: Klucel (hydroxypropylcellulose) (HPC) 94 % of control | dose: 400.0 mg/kg/injection, schedule: Q04DX002 (ip), vehicle: Klucel (hydroxypropylcellulose) (HPC) 98 % of control

CC(=O)CC(=O)Nc1nc(C)cs1
inactive: dose: 75.0 mg/kg/injection, schedule: Q01DX001 (ip), vehicle: Klucel (hydroxypropylcellulose) (HPC) 100 % of control | dose: 150.0 mg/kg/injection, schedule: Q01DX001 (ip), vehicle: Klucel (hydroxypropylcellulose) (HPC) 100 % of control | dose: 300.0 mg/kg/injection, schedule: Q01DX001 (ip), vehicle: Klucel (hydroxypropylcellulose) (HPC) 95 % of control
